In brackets after ≈: the same amount, converted by molar mass. Activity calls are given as the source filed them. No cut-off for these calls is given here.
Assays:
Mus musculus = experiment: Toxicity in CD1 mouse assessed as induction of convulsion at 100 mg/kg, icv measured 1 hr after post dose; assay type: organism-based; conditions: in vivo, icv_or_intrathecal
[1] = target: GABA A receptor alpha-2/beta-2/gamma-2 (Homo sapiens) (UniProt P47870+P18507+P47869); experiment: Inhibition of recombinant human GABA A alpha2beta2gamma2 receptor expressed in CHO-K1 cells at 300 uM incubated at room temperature for 15 mins before the GABA addition fluorescence spectrometry; assay type: cell-based
Escherichia coli [2] = experiment: microbe, parasite or virus in culture
Escherichia coli [3] = experiment: microbe, parasite or virus in culture; remark: listed apart in the source
[4] = AUC in rat at 10 mg/kg, iv; assay type: ADME, organism-based; conditions: in vivo
[5] = Stability assessed as assessed as Escherichia coli beta-lactamase KPC-2-mediated compound hydrolysis by measuring molar enthalpy of hydrolysis at 1 mM by isothermal titration calorimetry; assay type: ADME; conditions: 1000 µM
[6] = Drug excretion in dog assessed as unchanged parent drug level at 10 mg/kg, iv; assay type: ADME, organism-based, Canis lupus familiaris; conditions: in vivo, read-out: Drug excretion
Escherichia coli [7] = experiment: microbe, parasite or virus in culture; remark: listed apart in the source
Escherichia coli [8] = experiment: microbe, parasite or virus in culture; remark: listed apart in the source
Escherichia coli [9] = experiment: microbe, parasite or virus in culture; remark: listed apart in the source
Escherichia coli [10] = experiment: microbe, parasite or virus in culture; remark: listed apart in the source
Escherichia coli [11] = experiment: microbe, parasite or virus in culture; remark: listed apart in the source
Escherichia coli [12] = experiment: microbe, parasite or virus in culture; remark: listed apart in the source
Escherichia coli [13] = experiment: microbe, parasite or virus in culture; remark: listed apart in the source
Escherichia coli [14] = experiment: microbe, parasite or virus in culture; remark: listed apart in the source
[15] = Drug excretion in rat assessed as unchanged parent drug level at 10 mg/kg, iv; assay type: ADME, organism-based; conditions: in vivo, read-out: Drug excretion
Escherichia coli [16] = experiment: microbe, parasite or virus in culture; remark: listed apart in the source
Escherichia coli [17] = experiment: microbe, parasite or virus in culture; remark: listed apart in the source
[18] = AUC in mouse at […], iv; assay type: ADME, organism-based; conditions: in vivo
Klebsiella pneumoniae = experiment: Antimicrobial activity against Klebsiella pneumoniae expressing beta-lactamase NDM-1 infected in neutropenic mouse thigh infection model assessed as compound dose causing 1 log10 CFU reduction in bacterial load dosed subcutaneously every 4 hrs; assay type: functional
Escherichia coli [19] = experiment: microbe, parasite or virus in culture; remark: listed apart in the source
Beta-lactamase SHV-12 = target: T1, Beta-lactamase SHV-12 (Escherichia coli, UniProt Q7X574); experiment: Stability assessed as assessed as Escherichia coli beta-lactamase SHV-12-mediated compound hydrolysis by measuring molar enthalpy of hydrolysis at 1 mM by isothermal titration calorimetry; assay type: ADME; conditions: 1000 µM
T1 sequence (Q7X574 whole entry): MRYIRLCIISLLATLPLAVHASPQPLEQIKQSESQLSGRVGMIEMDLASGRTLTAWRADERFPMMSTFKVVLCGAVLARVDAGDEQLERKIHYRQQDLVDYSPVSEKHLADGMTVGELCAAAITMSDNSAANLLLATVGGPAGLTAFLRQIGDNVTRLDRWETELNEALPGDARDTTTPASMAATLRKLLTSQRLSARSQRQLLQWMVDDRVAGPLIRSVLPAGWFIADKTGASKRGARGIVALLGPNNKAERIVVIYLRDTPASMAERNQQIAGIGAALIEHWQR

[20] = AUC in dog at 10 mg/kg, iv; assay type: ADME, organism-based, Canis lupus familiaris; conditions: in vivo
Escherichia coli [21] = experiment: microbe, parasite or virus in culture; remark: listed apart in the source
Escherichia coli [22] = experiment: microbe, parasite or virus in culture; remark: listed apart in the source
Escherichia coli [23] = experiment: microbe, parasite or virus in culture; remark: listed apart in the source
Escherichia coli [24] = experiment: microbe, parasite or virus in culture; remark: listed apart in the source
[25] = Stability assessed as assessed as Escherichia coli beta-lactamase CTX-M-15-mediated compound hydrolysis by measuring molar enthalpy of hydrolysis at 1 mM by isothermal titration calorimetry; assay type: ADME; conditions: 1000 µM
Escherichia coli [26] = experiment: microbe, parasite or virus in culture; remark: listed apart in the source

## C[C@@H](O)[C@H]1C(=O)N2C(C(=O)O)=C(S[C@@H]3CN[C@H](CNS(N)(=O)=O)C3)[C@H](C)[C@H]12 [DORIPENEM]
Mus musculus
  Activity: Non-Toxic
[1]
  inhibition: 0%

## C[C@H]1[C@H](NC(=O)/C(=N\OC(C)(C)C(=O)O)c2csc(N)n2)C(=O)N1S(=O)(=O)O [AZTREONAM]
Escherichia coli [2]
  MIC: 16 µg/mL (≈ 36.7 µM)
Escherichia coli [3]
  MIC: 8 µg/mL (≈ 18.4 µM)
[4]
  AUC: 13000 ng·h/mL
[5]
  Stability: Unstable
[6]
  dose excreted: 53%
Escherichia coli [7]
  MIC: 256 µg/mL (≈ 588 µM)
Escherichia coli [8]
  MIC: 8 µg/mL (≈ 18.4 µM)
Escherichia coli [9]
  MIC: 4 µg/mL (≈ 9.19 µM)
Escherichia coli [10]
  MIC: 4 µg/mL (≈ 9.19 µM)
Escherichia coli [11]
  MIC: 1 µg/mL (≈ 2.3 µM)
Escherichia coli [12]
  MIC: 1 µg/mL (≈ 2.3 µM)
Escherichia coli [13]
  MIC: 128 µg/mL (≈ 294 µM)
Escherichia coli [14]
  MIC: 16 µg/mL (≈ 36.7 µM)
[15]
  dose excreted: 40%
Escherichia coli [16]
  MIC: 8 µg/mL (≈ 18.4 µM)
Escherichia coli [17]
  MIC: 16 µg/mL (≈ 36.7 µM)
[18]
  AUC: 5000 ng·h/mL
Klebsiella pneumoniae
  Activity: inactive
Escherichia coli [19]
  MIC: 8 µg/mL (≈ 18.4 µM)
Beta-lactamase SHV-12
  Stability: Unstable
[20]
  AUC: 13000 ng·h/mL
Escherichia coli [21]
  MIC: 1 µg/mL (≈ 2.3 µM)
Escherichia coli [22]
  MIC: 4 µg/mL (≈ 9.19 µM)
Escherichia coli [23]
  MIC: > 1020 µg/mL
Escherichia coli [24]
  MIC: 16 µg/mL (≈ 36.7 µM)
[25]
  Stability: Unstable
Escherichia coli [26]
  MIC: 1 µg/mL (≈ 2.3 µM)

Reference: ChEMBL document CHEMBL4184210, “Optimization of novel monobactams with activity against carbapenem-resistant Enterobacteriaceae - Identification of LYS228” (Bioorg Med Chem Lett, 2018)
